Source: patent US20190388494A1, “THERAPEUTIC COMBINATIONS FOR THE TREATMENT OF BACTERIAL INFECTIONS” (SETLANCE S.R.L., priority 2017, published 2019)
In brackets after ≈: the same amount, converted by molar mass. Where two headings read alike, the source gives them in different places.

Assays:
P. aeruginosa 854 [1] = test: microbe, parasite or virus in culture; type: cell-based, Pseudomonas aeruginosa
Experimental: (§1) Activity of SET-M33 and antibiotics was evaluated on six well characterized clinical strains. The strains were selected according to their resistance phenotypes and genotypes.
(§2) MICs were determined using a standard broth microdilution assay according to the guidelines of the Clinical and Laboratory Standards Institute.

A. baumannii VA566/00 [2] = test: MIC, standard broth microdilution; type: cell-based; conditions: Acinetobacter baumannii
Experimental: as §1, §2

P. aeruginosa AV65 [3] = test: MIC, standard broth microdilution; type: cell-based; conditions: Pseudomonas aeruginosa
Experimental: as §1, §2

A. baumannii N50 [4] = test: microbe, parasite or virus in culture; type: cell-based; conditions: Acinetobacter baumannii
Experimental: as §1, §2

K. pneumoniae 044-R [5] = test: microbe, parasite or virus in culture; type: cell-based; conditions: Klebsiella pneumoniae; agent alone; K. pneumoniae 044-R (XDR, KPC, colR)
Experimental: as §1, §2

K. pneumoniae KKBO-4 [6] = test: microbe, parasite or virus in culture; type: cell-based; conditions: Klebsiella pneumoniae, KKBO4
Experimental: as §1, §2

K. pneumoniae 044-R [7] = test: Antimicrobial activity in combination, checkerboard method; type: cell-based, Klebsiella pneumoniae; conditions: for MIC in combination, ATB: antimicrobial agent in combination with SET-M33
Experimental: as §1
(§3) Antimicrobial activity in combination was evaluated, in duplicate for each of the six strains, with the checkerboard method using cation-adjusted Mueller-Hinton broth (MHB) in 96-well microtiter plates (Sarstedt, Inc., Newton, N.C.). Assays were performed using a final bacterial inoculum of 5×10^4 CFU/well in a final volume of 100 μl. Results were recorded after 20 h of incubation at 35° C. The total fractional inhibitory concentration (ΣFIC) for each antibiotic combination was calculated according to EUCAST definitive document E.Def 1.2 [16] as follows: ΣFIC equals FIC of agent A plus FIC of agent B, where the FIC of agent A or B is the MIC of agent A or B in the presence of the other divided by the MIC of agent A or B alone. Results were interpreted according to the following definition: a ΣFIC of ≤0.5 indicated synergism, a ΣFIC of >0.5 to 1 indicated additivity, a ΣFIC of >1 to <2 indicated indifference, and a ΣFIC of ≥2 antagonism.

K. pneumoniae KKBO-4 [8] = test: as above; type: cell-based, Klebsiella pneumoniae; conditions: for MIC in combination, ATB: antimicrobial agent in combination with SET-M33
Experimental: as §1, §3

P. aeruginosa 854 [9] = test: as above; type: cell-based, Pseudomonas aeruginosa; conditions: for MIC in combination, ATB: antimicrobial agent in combination with SET-M33
Experimental: as §1, §3

P. aeruginosa AV65 [10] = test: as above; type: cell-based, Pseudomonas aeruginosa; conditions: for MIC in combination, ATB: antimicrobial agent in combination with SET-M33
Experimental: as §1, §3

A. baumannii N50 [11] = test: as above; type: cell-based, Acinetobacter baumannii; conditions: for MIC in combination, ATB: antimicrobial agent in combination with SET-M33
Experimental: as §1, §3

A. baumannii VA566/00 [12] = test: as above; type: cell-based, Acinetobacter baumannii; conditions: for MIC in combination, ATB: antimicrobial agent in combination with SET-M33
Experimental: as §1, §3

[13] = system: 6 MDR/XDR Gram-negative strains; type: cell-based
Experimental: as §1, §2

[14] = system: 6 MDR/XDR Gram-negative strains; test: Checkerboard combination testing, summary over the six strains; type: cell-based
Experimental: as §1, §3

[15] = Pseudomonas aeruginosa, agent alone, P. aeruginosa 854 (XDR, VIM-1), read-out: MIC
[16] = agent alone, A. baumannii N50 (MDR, OXA-24, colR), read-out: MIC
[17] = agent alone, K. pneumoniae KKBO-4 (XDR, KPC, colR), read-out: MIC
[18] = SET-M33 in combination with aztreonam
[19] = SET-M33 in combination with meropenem
[20] = SET-M33 in combination with rifampin
[21] = SET-M33 in combination with tobramycin

## NC[C@H]1O[C@H](O[C@H]2[C@H](O)[C@@H](O[C@H]3O[C@H](CO)[C@@H](O)[C@H](N)[C@H]3O)[C@H](N)C[C@@H]2N)[C@H](N)C[C@@H]1O [tobramycin]
P. aeruginosa 854 [1]; [15]
  MIC: 256 µg/mL (≈ 548 µM)
A. baumannii VA566/00 [2]; agent alone, A. baumannii VA566/00 (MDR, OXA-24), read-out: MIC
  MIC: 16 µg/mL (≈ 34.2 µM)
P. aeruginosa AV65 [3]; AV65
  MIC: 128 µg/mL (≈ 274 µM)
A. baumannii N50 [4]; [16]
  MIC: 8 µg/mL (≈ 17.1 µM)
K. pneumoniae 044-R [5]
  MIC: 32 µg/mL (≈ 68.4 µM)
K. pneumoniae KKBO-4 [6]; [17]
  MIC: 32 µg/mL (≈ 68.4 µM)
K. pneumoniae 044-R [7]
  MIC in combination, ATB: 16 µg/mL
K. pneumoniae KKBO-4 [8]
  MIC in combination, ATB: 16 µg/mL
P. aeruginosa 854 [9]
  MIC in combination, ATB: 256 µg/mL
P. aeruginosa AV65 [10]
  MIC in combination, ATB: 128 µg/mL
A. baumannii N50 [11]
  MIC in combination, ATB: 0.5 µg/mL
A. baumannii VA566/00 [12]
  MIC in combination, ATB: 4 µg/mL

## C[C@H]1[C@H](NC(=O)/C(=N\OC(C)(C)C(=O)O)c2csc(N)n2)C(=O)N1S(=O)(=O)O [aztreonam]
P. aeruginosa 854 [1]; Pseudomonas aeruginosa, 854
  MIC: 128 µg/mL (≈ 294 µM)
A. baumannii VA566/00 [2]; VA566/00
  MIC: 512 µg/mL (≈ 1180 µM)
P. aeruginosa AV65 [3]; agent alone, P. aeruginosa AV65 (XDR, IMP-13), read-out: MIC
  MIC: 32 µg/mL (≈ 73.5 µM)
A. baumannii N50 [4]; N50
  MIC: 128 µg/mL (≈ 294 µM)
P. aeruginosa 854 [9]
  MIC in combination, ATB: 64 µg/mL
P. aeruginosa AV65 [10]
  MIC in combination, ATB: 1 µg/mL
A. baumannii N50 [11]
  MIC in combination, ATB: 32 µg/mL
A. baumannii VA566/00 [12]
  MIC in combination, ATB: 16 µg/mL

## C[C@@H](O)[C@H]1C(=O)N2C(C(=O)O)=C(S[C@@H]3CN[C@H](C(=O)N(C)C)C3)[C@H](C)[C@H]12 [meropenem]
P. aeruginosa 854 [1]; Pseudomonas aeruginosa, 854
  MIC: 512 µg/mL (≈ 1340 µM)
A. baumannii VA566/00 [2]; VA566/00
  MIC: 512 µg/mL (≈ 1340 µM)
P. aeruginosa AV65 [3]; AV65
  MIC: 256 µg/mL (≈ 668 µM)
A. baumannii N50 [4]; N50
  MIC: 256 µg/mL (≈ 668 µM)
K. pneumoniae 044-R [5]
  MIC: 64 µg/mL (≈ 167 µM)
K. pneumoniae KKBO-4 [6]; [17]
  MIC: 64 µg/mL (≈ 167 µM)
K. pneumoniae 044-R [7]
  MIC in combination, ATB: 32 µg/mL
K. pneumoniae KKBO-4 [8]
  MIC in combination, ATB: 32 µg/mL
P. aeruginosa 854 [9]
  MIC in combination, ATB: 16 µg/mL
P. aeruginosa AV65 [10]
  MIC in combination, ATB: 64 µg/mL
A. baumannii N50 [11]
  MIC in combination, ATB: 64 µg/mL
A. baumannii VA566/00 [12]
  MIC in combination, ATB: 4 µg/mL

## CO[C@H]1/C=C/O[C@@]2(C)Oc3c(C)c(O)c4c(O)c(c(/C=N/N5CCN(C)CC5)c(O)c4c3C2=O)NC(=O)/C(C)=C\C=C\[C@H](C)[C@H](O)[C@@H](C)[C@@H](O)[C@@H](C)[C@H](OC(C)=O)[C@@H]1C [rifampin]
P. aeruginosa 854 [1]; [15]
  MIC: 32 µg/mL (≈ 38.9 µM)
A. baumannii VA566/00 [2]; VA566/00
  MIC: 256 µg/mL (≈ 311 µM)
P. aeruginosa AV65 [3]; AV65
  MIC: 128 µg/mL (≈ 156 µM)
A. baumannii N50 [4]; [16]
  MIC: 64 µg/mL (≈ 77.8 µM)
K. pneumoniae 044-R [5]
  MIC: 64 µg/mL (≈ 77.8 µM)
K. pneumoniae KKBO-4 [6]
  MIC: 128 µg/mL (≈ 156 µM)
K. pneumoniae 044-R [7]
  MIC in combination, ATB: 16 µg/mL
K. pneumoniae KKBO-4 [8]
  MIC in combination, ATB: 32 µg/mL
P. aeruginosa 854 [9]
  MIC in combination, ATB: 8 µg/mL
P. aeruginosa AV65 [10]
  MIC in combination, ATB: 64 µg/mL
A. baumannii N50 [11]
  MIC in combination, ATB: 4 µg/mL
A. baumannii VA566/00 [12]
  MIC in combination, ATB: 2 µg/mL

## CC[C@H](C)[C@H](NC(=O)[C@H](CCCCN)NC(=O)[C@@H](N)CCCCN)C(=O)N[C@@H](CCCNC(=N)N)C(=O)N[C@H](C(=O)N[C@@H](CCCNC(=N)N)C(=O)N[C@@H](CC(C)C)C(=O)N[C@@H](CO)C(=O)N[C@@H](C)C(=O)O)C(C)C (stereo in doubt) [SET-M33]
P. aeruginosa 854 [1]; 854
  MIC: 16 µg/mL (≈ 14.9 µM)
K. pneumoniae 044-R [7]; [18]
  MIC in combination, SET-M33: 8 µg/mL
K. pneumoniae 044-R [7]; [19]
  MIC in combination, SET-M33: 8 µg/mL
K. pneumoniae 044-R [7]; [20]
  MIC in combination, SET-M33: 4 µg/mL
K. pneumoniae 044-R [7]; [21]
  MIC in combination, SET-M33: 16 µg/mL
K. pneumoniae KKBO-4 [8]; [18]
  MIC in combination, SET-M33: 8 µg/mL
K. pneumoniae KKBO-4 [8]; [19]
  MIC in combination, SET-M33: 8 µg/mL
K. pneumoniae KKBO-4 [8]; [20]
  MIC in combination, SET-M33: 4 µg/mL
K. pneumoniae KKBO-4 [8]; [21]
  MIC in combination, SET-M33: 16 µg/mL
P. aeruginosa 854 [9]; [18]
  MIC in combination, SET-M33: 8 µg/mL
P. aeruginosa 854 [9]; [19]
  MIC in combination, SET-M33: 8 µg/mL
P. aeruginosa 854 [9]; [20]
  MIC in combination, SET-M33: 8 µg/mL
P. aeruginosa 854 [9]; [21]
  MIC in combination, SET-M33: 8 µg/mL
P. aeruginosa AV65 [10]; [18]
  MIC in combination, SET-M33: 8 µg/mL
P. aeruginosa AV65 [10]; [19]
  MIC in combination, SET-M33: 4 µg/mL
P. aeruginosa AV65 [10]; [20]
  MIC in combination, SET-M33: 8 µg/mL
P. aeruginosa AV65 [10]; [21]
  MIC in combination, SET-M33: 2 µg/mL
A. baumannii N50 [11]; [18]
  MIC in combination, SET-M33: 4 µg/mL
A. baumannii N50 [11]; [19]
  MIC in combination, SET-M33: 4 µg/mL
A. baumannii N50 [11]; [20]
  MIC in combination, SET-M33: 8 µg/mL
A. baumannii N50 [11]; [21]
  MIC in combination, SET-M33: 8 µg/mL
A. baumannii VA566/00 [12]; [18]
  MIC in combination, SET-M33: 4 µg/mL
A. baumannii VA566/00 [12]; [19]
  MIC in combination, SET-M33: 4 µg/mL
A. baumannii VA566/00 [12]; [20]
  MIC in combination, SET-M33: 4 µg/mL
A. baumannii VA566/00 [12]; [21]
  MIC in combination, SET-M33: 8 µg/mL
[13]
  MIC values: 4 to 32 µg/mL
[14]; SET-M33 in combination with aztreonam, colistin-resistant strains of K. pneumoniae
  interaction in combination (ΣFIC interpretation): synergistic activity
[14]; SET-M33 in combination with ciprofloxacin, data not shown
  interaction in combination (ΣFIC interpretation): Additivity
[14]; SET-M33 in combination with rifampin, colistin-resistant strains of K. pneumoniae
  interaction in combination (ΣFIC interpretation): synergistic activity
[14]; SET-M33 in combination with tobramycin, one of the A. baumannii strains
  interaction in combination (ΣFIC interpretation): Synergy
[14]; when a synergistic effect was present, e.g. with rifampin, aztreonam and tobramycin
  effect of combination on SET-M33 MIC values: moderately affected
[14]; when the effect was additive or indifferent
  effect of combination on SET-M33 MIC values: not affected
